The values that follow come from publication PMC5371824, “Phosphatidylinositol (4,5)-bisphosphate dynamically regulates the K2P background K^+ channel TASK-2” (Scientific Reports, 2017).

The target of experiment [1] is T1, TASK-2-R4C (Mus musculus, UniProt F6V9U5, R4C).
T1 construct: expressed in transfected cells; host or cells: HEK-293
T1 sequence (F6V9U5 1-502 R4C): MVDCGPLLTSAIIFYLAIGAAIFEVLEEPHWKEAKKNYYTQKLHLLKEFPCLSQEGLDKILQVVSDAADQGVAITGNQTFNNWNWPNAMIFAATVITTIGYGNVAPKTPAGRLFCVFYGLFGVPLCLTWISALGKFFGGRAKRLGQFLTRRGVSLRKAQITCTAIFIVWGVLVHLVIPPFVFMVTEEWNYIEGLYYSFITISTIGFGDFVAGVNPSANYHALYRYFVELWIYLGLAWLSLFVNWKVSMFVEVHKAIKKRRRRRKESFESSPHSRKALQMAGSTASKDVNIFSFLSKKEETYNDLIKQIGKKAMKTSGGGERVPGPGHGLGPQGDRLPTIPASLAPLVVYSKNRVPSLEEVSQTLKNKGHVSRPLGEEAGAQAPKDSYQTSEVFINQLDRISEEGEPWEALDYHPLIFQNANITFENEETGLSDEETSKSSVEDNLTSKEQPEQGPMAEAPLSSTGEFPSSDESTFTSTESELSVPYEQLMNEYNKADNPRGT
The experiment in a line: Excised inside-out patch recording, TASK-2-R4C mutant. Also noted: key to MTSET effect: ✓ under “MTSET effect” indicates a significant increase in current after treatment with the methanesulfonate reagent; — in all cases stands for no significant effect. Type of experiment: biochemical. The method, then:
(§1) Figure 6 Scanning of potential sites of interaction of TASK-2 with PI(4,5)P2 by cysteine mutagenesis of intracellular basic residues. (A) Schematic representation of TASK-2 topology showing the sequences of segments of the protein predicted to be intracellular or intracellular-facing. Basic residues are highlighted in red. (B) Recording from an excised inside-out patch of membrane taken from a HEK-293 cell over-expressing TASK-2. The patch was held at −60 mV in the presence of 1 mM ATP. At the intervals indicated by the boxes the intracellular aspect of the membrane was exposed to 300 μM Neomycin and then to 100 μM TPeA. At the end of the TPeA period the patch was additionally exposed to 1 mM MTSET as shown by the black box. (C and D) experiments as in (B), but with inside-out membrane patches obtained from cells expressing the mutants TASK-2-H327C and TASK-2-K297C respectively. In D the reducing agent DTT was also added at 2 mM. (E) Summary of experiments comparing the current before and after treatment with MTSET. […]
(§2) Recordings in the inside-out isolated patch configuration were performed in the gap-free mode at −60 mV. […] Traces shown are prints from crude Clampfit screen shots and quantification was done using the average currents were calculated at intervals using Clampfit after baseline adjustment.

Experiment [2] deals with T2, TASK-2-H327C (Mus musculus, UniProt F6V9U5, H327C).
T2 construct: expressed in transfected cells; host or cells: HEK-293
T2 sequence (F6V9U5 1-502 H327C): T1 sequence (F6V9U5 1-502 R4C) with C4R, H327C
In words: Excised inside-out patch recording, TASK-2-H327C mutant. Type of experiment: biochemical. To be noted: 1 mM, brief intracellular exposure in the presence of TPeA. The method, then:
as §1, §2

The test system of experiment [3] is TASK-2-R438C. The experiment in a line: Excised inside-out patch recording, TASK-2-R438C mutant. Details: key to MTSET effect: ✓ under “MTSET effect” indicates a significant increase in current after treatment with the methanesulfonate reagent; — in all cases stands for no significant effect. It is filed as biochemical, Mus musculus. As to the method: Mus musculus TASK-2 (GenBank accession No. AF319542) plasmid was that obtained from mouse kidney. The cDNAs was subcloned into the pCR3.1 vector. Mutations were made by site-directed mutagenesis into the pCR3.1 vector as previously described[69] and confirmed by sequencing. HEK-293 cells were cultured in Dulbecco’s modified Eagle’s medium (DMEM) and F12 Ham’s medium at a 1:1 ratio and supplemented with 10% fetal calf serum at 37 °C in 5% CO2. For electrophysiological experiments, transient transfections were performed by electroporation, using CD8 cotransfection to identify effectively transfected cells. […] Experiments were performed 4–8 h after electroporation. In experiments with the voltage-sensitive phosphatase TASK-2 or its mutants were co-electroporated with a pCR3.1-DrVSP-IRES-CD8 vector.
Recordings in the inside-out isolated patch configuration were performed in the gap-free mode at −60 mV. The inside aspect of the patch was bathed with a solution containing in mM: 10 KCl, 10 Glucose, 1 MgCl2, 10 EGTA, 1 Na3ATP, 0.1 GTP, 6.8 g/100 ml Sucrose, 10 Hepes/Tris, pH 7.4. The pipette contained in mM: 140 KCl, 10 Glucose, 6.8 g/100 ml Sucrose, 10 Hepes/Tris pH 7.4. For isolated patches, borosilicate capillaries (Harvard Apparatus GC150F-10 1.5 ODx0.86 ID) were fire polished to 4–5 MΩ and covered in beeswax. Acquisition was at 10 kHz with filter at 3 kHz (4-pole Bessel) and analysis was done with Clampfit 9.0 (Axon Instruments, Foster City, CA, USA). Traces shown are prints from crude Clampfit screen shots and quantification was done using the average currents were calculated at intervals using Clampfit after baseline adjustment.
Fig. S7. Concentration ependence for the inhibition of TASK-2 mutant R438C by
intracellular neomycin. Recording were obtained from excised inside-out patches of
membrane taken from a HEK-293 cells over-expressing TASK-2-R438C. The patches were
held at -60 mV in the presence of 1 mM intracellular ATP. Neomycin was increased
stepwise from 5 to 500 µM in the solution bathing the intracellular aspect of the membrane. […]

Where [4] appears, read: 1 mM, in the presence of TPeA, inside-out patch.

Changes are numbered by the printed parent chain.

Regarding `C[N+](C)(C)CCSS(C)(=O)=O.[Cl-]` [MTSET, [2-(trimethylammonium)ethyl] methanethiosulfonate chloride], the “Effect of MTSET on TASK-2-R4C activity” value in experiment [1] (setting [4]) is recorded as “not affected”. Moreover, the MTSET effect result in experiment [1] (mutation R4C) and in experiment [3] (mutation R438C) was “—” throughout. Also, in experiment [2], the “Effect of MTSET on TASK-2-H327C channel activity” value is reported as “Neither WT nor H327C channel activity is affected”. Besides, the “Effect of MTSET on TASK-2-R438C activity” value in experiment [3] (setting [4]) is reported as “not affected”.
